Our source for the IC50, MIC and EC50 values is ChEMBL document CHEMBL4017485, “Chromone as a Privileged Scaffold in Drug Discovery: Recent Advances” (J Med Chem, 2017).

≈ marks a conversion by molar mass, not a printed value.

In assay [1] the test system is U2OS. Description: Antiproliferative activity against human U2OS cells after 48 hrs by MTT assay. The assay is classed as functional, cell-based.
Assay [2] concerns MG-63. Description: Antiproliferative activity against human MG63 cells after 48 hrs by MTT assay. The assay is classed as functional, cell-based. The conditions noted are these: MG-63, 48 h.
In assay [3] the test system is Staphylococcus aureus. Briefly: Antibacterial activity against Staphylococcus aureus ATCC 6538 after 16 hrs by broth dilution method. The assay is classed as functional. Particulars: ATCC 6538, 16 h. On the technique in general: Broth dilution looks for growth in wells or tubes with falling amounts of substance.
For assay [4], the system named is Pseudomonas aeruginosa. Briefly: Antibacterial activity against Pseudomonas aeruginosa ATCC 13384 after 16 hrs by broth dilution method. Type of assay: functional. Particulars: ATCC 13384, 16 h.
In assay [5] the test system is Candida tropicalis. Description: Antifungal activity against Candida tropicalis after 24 hrs by Neubauer chamber method. Type of assay: functional.
Assay [6] addresses Acetylcholinesterase (Electrophorus electricus, UniProt O42275). Description: Inhibition of electric eel AChE using acetylthiocholine iodide as substrate preincubated with substrate for 15 mins followed by protein addition measured after 5 mins by Ellaman's method.
Assay [7] can be described thus: Inhibition of Saccharomyces cerevisiae alpha-glucosidase using PNP-G as substarte.
Assay [8] is described as follows: Antioxidant activity assessed as DPPH free radical scavenging activity. The assay is classed as functional.
In assay [9] the test system is MCF7. Briefly: Antiproliferative activity against human MCF7 cells after 4 hrs by MTT assay. Particulars: MCF7, 4 h. Type of assay: functional, cell-based. On the technique in general: Formazan colour is commonly taken as a measure of viable cells.
In assay [10] the test system is KB. Description: Antiproliferative activity against human KB cells after 4 hrs by MTT assay. Type of assay: functional, cell-based.
In assay [11] the target is T1, Amine oxidase [flavin-containing] B (Homo sapiens, UniProt P27338).
T1 sequence (P27338 whole entry): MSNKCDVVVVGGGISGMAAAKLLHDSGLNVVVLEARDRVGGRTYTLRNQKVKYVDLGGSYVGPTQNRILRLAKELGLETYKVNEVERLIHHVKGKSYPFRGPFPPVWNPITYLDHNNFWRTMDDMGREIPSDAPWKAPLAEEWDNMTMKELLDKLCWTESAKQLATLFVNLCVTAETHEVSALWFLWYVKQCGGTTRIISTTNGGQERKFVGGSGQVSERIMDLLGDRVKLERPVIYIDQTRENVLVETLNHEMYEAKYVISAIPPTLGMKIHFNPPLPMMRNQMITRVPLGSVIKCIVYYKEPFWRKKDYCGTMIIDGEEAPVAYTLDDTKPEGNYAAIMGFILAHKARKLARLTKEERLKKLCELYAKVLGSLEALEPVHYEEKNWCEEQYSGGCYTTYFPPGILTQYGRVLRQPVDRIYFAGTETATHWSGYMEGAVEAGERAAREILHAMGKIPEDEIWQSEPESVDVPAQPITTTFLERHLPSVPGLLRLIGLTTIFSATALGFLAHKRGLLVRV
Briefly: Inhibition of human MAO-B using p-tyramine as substrate by amplex red-based fluorescence assay.

Assay [12] concerns Entamoeba histolytica. Description: Antiamoebic activity against trophozoite stage of Entamoeba histolytica HM-1:IMSS incubated for 24 hrs measured after 48 hrs by dilution micromethod. Type of assay: functional.
Assay [13] has as its target Beta-secretase 1 (Homo sapiens, UniProt P56817). Briefly: Inhibition of recombinant human BACE-1 using rhodamine labelled EVNLDAEFK as substrate after 90 mins by FRET assay.

Acetylcholinesterase, sequence (O42275 whole entry): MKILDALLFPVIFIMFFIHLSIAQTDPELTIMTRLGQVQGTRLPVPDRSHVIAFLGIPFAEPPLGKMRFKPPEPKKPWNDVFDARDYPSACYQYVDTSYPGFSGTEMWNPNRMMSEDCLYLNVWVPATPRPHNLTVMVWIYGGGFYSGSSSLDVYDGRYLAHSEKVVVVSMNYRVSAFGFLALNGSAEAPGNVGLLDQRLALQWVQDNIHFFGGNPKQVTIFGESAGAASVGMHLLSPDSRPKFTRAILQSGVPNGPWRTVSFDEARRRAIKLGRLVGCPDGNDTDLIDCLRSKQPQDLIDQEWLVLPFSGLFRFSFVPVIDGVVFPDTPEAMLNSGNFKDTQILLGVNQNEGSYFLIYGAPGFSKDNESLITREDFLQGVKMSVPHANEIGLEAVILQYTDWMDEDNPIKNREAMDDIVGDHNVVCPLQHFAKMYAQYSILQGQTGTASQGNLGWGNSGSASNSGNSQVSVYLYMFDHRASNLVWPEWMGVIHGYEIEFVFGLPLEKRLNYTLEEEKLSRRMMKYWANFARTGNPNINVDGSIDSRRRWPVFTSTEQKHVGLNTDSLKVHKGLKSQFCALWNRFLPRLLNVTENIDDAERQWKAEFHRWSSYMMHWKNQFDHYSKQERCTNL
Beta-secretase 1, sequence (P56817 whole entry): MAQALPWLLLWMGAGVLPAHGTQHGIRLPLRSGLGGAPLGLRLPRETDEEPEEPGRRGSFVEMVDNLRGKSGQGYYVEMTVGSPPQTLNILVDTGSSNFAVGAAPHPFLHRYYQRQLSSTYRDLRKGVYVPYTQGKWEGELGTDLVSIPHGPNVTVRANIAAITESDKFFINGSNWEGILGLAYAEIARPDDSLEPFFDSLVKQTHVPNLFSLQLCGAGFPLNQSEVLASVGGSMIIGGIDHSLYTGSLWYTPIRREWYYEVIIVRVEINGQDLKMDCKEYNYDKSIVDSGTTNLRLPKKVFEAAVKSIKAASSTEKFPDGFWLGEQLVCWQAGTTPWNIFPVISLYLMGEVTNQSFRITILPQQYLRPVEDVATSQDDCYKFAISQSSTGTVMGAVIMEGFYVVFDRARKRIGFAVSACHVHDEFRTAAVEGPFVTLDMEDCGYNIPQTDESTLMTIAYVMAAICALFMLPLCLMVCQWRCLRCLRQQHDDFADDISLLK

For `O=c1cc(N2CCOCC2)oc2c(-c3ccccc3)cccc12` [LY-294002], the IC50 (usually the concentration that inhibits the measured activity by half) in [1] is 63 µM; in assay [2], 55.2 µM.
On to `COc1cc(NC(c2coc3cc(F)ccc3c2=O)c2nnnn2C2CCCCC2)cc(OC)c1OC` (stereo unspecified), for which the MIC – broadly, the lowest concentration found to suppress growth – came to 160 µg/mL (≈ 314 µM) in assay [3], 80 µg/mL (≈ 157 µM) in assay [4] and 6250 µg/mL (≈ 12300 µM) in assay [5].
In assay [6], `NC1=C(/C=C2\COc3ccccc3C2=O)C(=O)C2C=CC=CC2O1` (stereo unspecified) displayed an IC50 of 0.27 µM.
`COc1ccc2c(c1)OC/C(=C\c1ccc(O)c(O)c1)C2=O`: half-maximal inhibition in [7] (IC50) was put at 28 µM. For the same molecule, the EC50 (as a rule, the concentration that produces a half-maximal response) in assay [8] stood at 13 µM.
As for `COc1ccc2c(=O)c(/C=C3\SC(=O)N(C)C3=O)coc2c1`, in [9], 32.8 µg/mL (≈ 103 µM) corresponded to half-maximal inhibition (IC50).
As for `COc1ccc2c(=O)c(/C=C3\SC(=O)NC3=O)coc2c1`, in [10], inhibition was half-maximal at 44.1 µg/mL (≈ 145 µM) (IC50).
Molecule `O=C1/C(=C/C2=COC3C=CC(Br)=CC3C2=O)COc2ccccc21` (stereo unspecified) had an IC50 in assay [6] of 0.96 µM.
The molecule `Cc1ccc(N/C=C2\C(=O)Oc3ccccc3C2=O)cc1` yielded an IC50 in [11] of 0.0423 µM.
In the case of `CC(C)(C)n1nnnc1C(Nc1ccccc1I)c1coc2ccccc2c1=O` (stereo unspecified), the MIC in assay [3] was 40 µg/mL (≈ 79.8 µM); in assay [4], 160 µg/mL (≈ 319 µM). For the same molecule, it took 61.7 µg/mL (≈ 123 µM) to reach half-maximal inhibition in assay [12] (IC50).
On to `CCCCCC(=O)Oc1ccc2c(=O)c(C3C(OC(=O)CC)=C(C)NC(C)=C3OC(=O)CC)coc2c1`, for which the IC50 in [13] is 6.84 µM.
As for `O=c1c(/C=C/c2ccc(O)c(O)c2)coc2ccc(O)cc12`, in assay [7], the IC50 was determined as 16 µM. In [8], the EC50 amounted to 17 µM.
In assay [12], `CC(C)(C)n1nnnc1C(Nc1ccc(Cl)cc1)c1coc2cc(F)ccc2c1=O` (stereo unspecified) returned an IC50 of 61.7 µg/mL (≈ 144 µM).
With `CC(C)(C)n1nnnc1C(Nc1ccccc1)c1coc2cc(F)ccc2c1=O` (stereo unspecified), the MIC turned out to be 80 µg/mL (≈ 203 µM) in assay [3] and 20 µg/mL (≈ 50.8 µM) in assay [4].
